Results on 30 compounds are retold here after patent US20100063065A1 (Inpharmatica Limited, priority 2005, published 2010).

In the test the target is T1, PPARδ (Homo sapiens, UniProt Q03181).
T1 construct: fused to amino acids 147-441 of PPARδ downstream of CMV promoter; expressed in transfected cells; host or cells: HEK293 cells, transiently transfected with pFACMV-PPARδ using Fugene
T1 sequence (Q03181 147-441): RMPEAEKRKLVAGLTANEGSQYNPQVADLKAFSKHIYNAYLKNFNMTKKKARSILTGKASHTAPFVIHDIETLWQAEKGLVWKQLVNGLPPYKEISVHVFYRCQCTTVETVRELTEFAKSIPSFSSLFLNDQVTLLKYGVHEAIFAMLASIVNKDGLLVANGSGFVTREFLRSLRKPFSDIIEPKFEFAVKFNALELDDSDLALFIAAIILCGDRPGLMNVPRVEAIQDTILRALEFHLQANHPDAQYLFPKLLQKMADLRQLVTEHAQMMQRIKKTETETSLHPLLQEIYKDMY
Kind of test: Transactivation assay (PPARδ GAL4 assay) in transiently transfected HEK293 cells. The test is classed as cell-based. As to conditions: luciferase reporter. How it is done: Compounds were screened for their functional potency in transiently transfected HEK293 cells for their ability to activate PPAR subtypes. Cells were cultured in DMEM (Invitrogen) supplemented with 10% foetal calf serum, glutamine, penicillin and streptomycin and plated at 10 000 cells/well of a 96-well solid white plate and incubated at 37° C./5% CO2 for 24 hours. Media was removed and the cells washed with PBS. Cells were then transiently transfected using Fugene (Roche) with 50 ng pFACMV-PPARδ (plasmid encoding amino acids 1-147 of the GAL4 DNA binding domain, fused to amino acids 147-441 of PPARδ downstream of CMV promoter) and 250 ng pFR-Luc (reporter plasmid containing 5×GAL4 response elements upstream of a luciferase gene), using a ratio of 3:1 Fugene:DNA. 100 μl of this transfection mixture in DMEM (without foetal calf serum) was added to each well, and the incubation continued for a further 24 hours. The cells are then again washed with PBS prior to the addition of 100 μl reduced serum medium (OptiMEM; Invitrogen). Compounds were added (10 μl in 2% DMSO in OptiMEM) to achieve final concentrations between 0-30 μM. The cells were then returned to the incubator for a further 24 hours. 100 μl of luciferase reagent (Bright Glo, Promega) was added directly to each well, and the luminescence determined using a suitable luminometer.
To measure the selectivity of compounds, their ability to transactivate GAL4 fusions of PPARα LBD and PPARγ LBD was determined. The activity of compounds was expressed as a percentage relative to control compounds: PPARγ rosiglitazone (BRL 49653), PPARδ GW501516 (11) or PPARα KCL1999000269 (12). EC50 values were calculated by fitting of the data to a sigmoidal dose response curve.
(Reporter assays use an easily measured gene product as a stand-in for the process of interest.)

Where only a bound is given, the exact number is not on record here.

A word on the EC50: it is the midpoint of the concentration-response curve. For `CCc1cc(C(=O)c2ccc(OC(F)(F)F)cc2)c(NC(=O)CN2CC(C)CC2C(=O)O)s1` (mixture of isomers) [Example 180, 1-{[5-Ethyl-3-(4-trifluoromethoxy-benzoyl)-thiophen-2-ylcarbamoyl]-methyl}-4-methyl-pyrrolidine-2-carboxylic acid], the EC50 (Table 2) lay within 100 to 1000 nM. Compound `CCc1cc(C(=O)c2ccc(OC(F)(F)F)cc2)c(NC(=O)CN2[C@H](C)CC[C@@H]2C(=O)O)s1` (relative stereo) [Example 178, (2R*,5R*)-1-{[5-Ethyl-3-(4-trifluoromethoxy-benzoyl)-thiophen-2-ylcarbamoyl]-methyl}-5-methyl-pyrrolidine-2-carboxylic acid] yielded an EC50 (Table 2) of 1000 to 30000 nM. Where the note is “Table 2”, `CCc1cc(C(=O)c2ccc(OC(F)(F)F)cc2)c(NC(=O)CN2[C@@H](C(=O)O)CC[C@@H]2C)s1` (relative stereo) [Example 179, (2R*,5S*)-1-{[5-Ethyl-3-(4-trifluoromethoxy-benzoyl)-thiophen-2-ylcarbamoyl]-methyl}-5-methyl-pyrrolidine-2-carboxylic acid] returned an EC50 of under 100 nM. `CCc1cc(C(=O)c2ccc(OC(F)(F)F)cc2)c(NC(=O)CN[C@@H](C(=O)O)C(C)C)s1` (single isomer, unassigned) [Example 75, 2-({[5-Ethyl-3-(4-trifluoromethoxy-benzoyl)-thiophen-2-ylcarbamoyl]-methyl}-amino)-3-methyl-butyric acid]: the EC50 (Table 1) is under 100 nM.

`CCc1cc(C(=O)c2ccc(OC(F)(F)F)cc2)c(NC(=O)CSCC(=O)O)s1` [Example 1, {[5-Ethyl-3-(4-trifluoromethoxy-benzoyl)-thiophen-2-ylcarbamoyl]-methylsulfanyl}-acetic acid] had an EC50 (Table 1) of under 100 nM.

For `CCc1cc(C(=O)c2ccc(OC(F)(F)F)cc2)c(NC(=O)CSC(C)(C)C(=O)O)s1` [Example 2, 2-{[5-Ethyl-3-(4-trifluoromethoxy-benzoyl)-thiophen-2-ylcarbamoyl]-methylsulfanyl}-2-methyl-propionic acid], where the note is “Table 1”, the EC50 is under 100 nM.

`CCc1cc(C(=O)c2ccc(OC(F)(F)F)cc2)c(NC(=O)CC(C)(C)CC(=O)O)s1` [Example 3, 4-[5-Ethyl-3-(4-trifluoromethoxy-benzoyl)-thiophen-2-ylcarbamoyl]-3,3-dimethyl-butylic acid] came in with an EC50 (Table 1) of 100 to 1000 nM. Same read-out and setting: then `CCc1cc(C(=O)c2ccc(OC(F)(F)F)cc2)c(NC(=O)CC2(CC(=O)O)CCCC2)s1` [Example 4, (1-{[5-Ethyl-3-(4-trifluoromethoxy-benzoyl)-thiophen-2-ylcarbamoyl]-methyl}-cyclopentyl)-acetic acid], with 100 to 1000 nM.

As to `CCc1cc(C(=O)c2ccc(OC)cc2)c(NC(=O)CSC(C)(C)C(=O)O)s1` [Example 5, 2-{[5-Ethyl-3-(4-methoxy-benzoyl)-thiophen-2-ylcarbamoyl]-methylsulfanyl}-2-methyl-propionic acid], where the note is “Table 1”, the EC50 fell in the range of 100 to 1000 nM. Consider `CCc1cc(C(=O)c2ccc(OC)cc2)c(NC(=O)CC2(CC(=O)O)CCCC2)s1` [Example 6, (1-{[5-Ethyl-3-(4-methoxy-benzoyl)-thiophen-2-ylcarbamoyl]-methyl}-cyclopentyl)-acetic acid], for which the EC50 (Table 1) lay in the range of 1000 to 30000 nM.

Under “Table 1”, `CCc1cc(C(=O)c2ccc(OC)cc2)c(NC(=O)CCCC(=O)O)s1` [Example 7, 4-[5-Ethyl-3-(4-methoxy-benzoyl)-thiophen-2-ylcarbamoyl]-butyric acid] gave an EC50 of 1000 to 30000 nM. Same read-out and setting: then `CCc1cc(C(=O)c2ccc(C)cc2)c(NC(=O)CSCC(=O)O)s1` [Example 8, {[5-Ethyl-3-(4-methyl-benzoyl)-thiophen-2-ylcarbamoyl]-methylsulfanyl}-acetic acid], with 100 to 1000 nM. Same read-out and setting: then `CCc1ccc(C(=O)c2cc(CC)sc2NC(=O)CSCC(=O)O)cc1` [Example 9, {[5-Ethyl-3-(4-ethyl-benzoyl)-thiophen-2-ylcarbamoyl]-methylsulfanyl}-acetic acid], with 100 to 1000 nM; and `CCc1ccc(C(=O)c2cc(CC)sc2NC(=O)CSC(C)(C)C(=O)O)cc1` [Example 10, 2-{[5-Ethyl-3-(4-ethyl-benzoyl)-thiophen-2-ylcarbamoyl]-methylsulfanyl}-2-methyl-propionic acid], with 100 to 1000 nM.

Under “Table 1”, `CCc1ccc(C(=O)c2cc(CC)sc2NC(=O)CC2(CC(=O)O)CCCC2)cc1` [Example 11, (1-{[5-Ethyl-3-(4-ethyl-benzoyl)-thiophen-2-ylcarbamoyl]-methyl}-cyclopentyl)-acetic acid] came in with an EC50 of 1000 to 30000 nM. The same measure, in the same setting: with `CCc1cc(C(=O)c2ccc(Oc3ccccc3)cc2)c(NC(=O)CSCC(=O)O)s1` [Example 12, {[5-Ethyl-3-(4-phenoxy-benzoyl)-thiophen-2-ylcarbamoyl]-methylsulfanyl}-acetic acid] the figure was 100 to 1000 nM; with `CCc1cc(C(=O)c2ccc(Oc3ccccc3)cc2)c(NC(=O)CC(C)(C)CC(=O)O)s1` [Example 13, 4-[5-Ethyl-3-(4-phenoxy-benzoyl)-thiophen-2-ylcarbamoyl]-3,3-dimethyl-butyric acid], 1000 to 30000 nM. `CCc1cc(C(=O)c2ccccc2)c(NC(=O)CSCC(=O)O)s1` [Example 14, [(3-Benzoyl-5-ethyl-thiophen-2-ylcarbamoyl)-methylsulfanyl]-acetic acid] yielded an EC50 (Table 1) of 1000 to 30000 nM.

The compound `CCc1cc(C(=O)c2ccccc2)c(NC(=O)CSC(C)(C)C(=O)O)s1` [Example 15, 2-[(3-Benzoyl-5-ethyl-thiophen-2-ylcarbamoyl)-methylsulfanyl]-2-methyl-propionic acid] yielded an EC50 (Table 1) of 1000 to 30000 nM.

In the case of `CCc1cc(C(=O)c2ccccc2)c(NC(=O)CC(C)(C)CC(=O)O)s1` [Example 16, 4-(3-Benzoyl-5-ethyl-thiophen-2-ylcarbamoyl)-3,3-dimethyl-butyric acid], where the note is “Table 1”, the EC50 was 1000 to 30000 nM. Still for that read-out and setting: then `CCc1cc(C(=O)c2ccccc2)c(NC(=O)CC2(CC(=O)O)CCCC2)s1` [Example 17, {1-[(3-Benzoyl-5-ethyl-thiophen-2-ylcarbamoyl)-methyl]-cyclopentyl}-acetic acid], with 1000 to 30000 nM; and `CCc1cc(C(=O)c2ccc(F)cc2)c(NC(=O)CSCC(=O)O)s1` [Example 18, {[5-Ethyl-3-(4-fluoro-benzoyl)-thiophen-2-ylcarbamoyl]-methylsulfanyl}-acetic acid], with 1000 to 30000 nM; and `CCc1cc(C(=O)c2ccc(F)cc2)c(NC(=O)CSC(C)(C)C(=O)O)s1` [Example 19, 2-{[5-Ethyl-3-(4-fluoro-benzoyl)-thiophen-2-ylcarbamoyl]-methylsulfanyl}-2-methyl-propionic acid], with 100 to 1000 nM. On to `CCc1cc(C(=O)c2ccc(F)cc2)c(NC(=O)CC(C)(C)CC(=O)O)s1` [Example 20, 4-[5-Ethyl-3-(4-fluoro-benzoyl)-thiophen-2-ylcarbamoyl]-3,3-dimethyl-butyric acid], for which the EC50 (Table 1) lay within 1000 to 30000 nM. On the same count and under the same terms, with `CCc1cc(C(=O)c2ccc(F)cc2)c(NC(=O)CC2(CC(=O)O)CCCC2)s1` [Example 21, (1-{[5-Ethyl-3-(4-fluoro-benzoyl)-thiophen-2-ylcarbamoyl]-methyl}-cyclopentyl)-acetic acid] the figure was 1000 to 30000 nM; with `CCc1cc(C(=O)c2ccc(Br)cc2)c(NC(=O)CSCC(=O)O)s1` [Example 22, {[3-(4-Bromo-benzoyl)-5-ethyl-thiophen-2-ylcarbamoyl]-methylsulfanyl}-acetic acid], under 100 nM; with `CCc1cc(C(=O)c2ccc(Cl)cc2)c(NC(=O)CSCC(=O)O)s1` [Example 23, {[3-(4-Chloro-benzoyl)-5-ethyl-thiophen-2-ylcarbamoyl]-methylsulfanyl}-acetic acid], 100 to 1000 nM. Still for that read-out and setting: with `CCc1cc(C(=O)c2ccc(Cl)cc2)c(NC(=O)CSC(C)(C)C(=O)O)s1` [Example 24, 2-{[3-(4-Chloro-benzoyl)-5-ethyl-thiophen-2-ylcarbamoyl]-methylsulfanyl}-2-methyl-propionic acid] the figure was 100 to 1000 nM. For the setting “Table 1”, `CCc1cc(C(=O)c2ccc(Cl)cc2)c(NC(=O)CC(C)(C)CC(=O)O)s1` [Example 25, 4-[3-(4-Chloro-benzoyl)-5-ethyl-thiophen-2-ylcarbamoyl]-3,3-dimethyl-butyric acid] came in with an EC50 of 1000 to 30000 nM. Compound `CCc1cc(C(=O)c2ccc(Cl)cc2)c(NC(=O)CC2(CC(=O)O)CCCC2)s1` [Example 26, (1-{[3-(4-Chloro-benzoyl)-5-ethyl-thiophen-2-ylcarbamoyl]-methyl}-cyclopentyl)-acetic acid] yielded an EC50 (Table 1) of 1000 to 30000 nM.
